The results in this text go back to US10324096B2, “Method of diagnosis, prognostic or treatment of neurodegenerative disease” (CENTRE NATIONAL DE LA RECHERCHE SCIENTIFIQUE, priority 2011, dated 2019).

The subject of data set [1] is zebrafish 3-OST-2 gene / abnormally phosphorylated Tau protein. The data set can be described thus: Morpholino knock-down of 3-OST-2 in hTAU-P301L zebrafish: hyperphosphorylated Tau. It is filed as in vivo. As to the method:
(§1) Morpholino oligonucleotides (MO) were designed to target the flanking region in the zebrafish 3-OST-2 gene in order to block the translation of the HS3ST2 mRNA: 5′-ATGGCATATAGGT TCCTGTCAAGCC . . . -3′. The morpholino antisense oligonucleotides were designed by Gene Tools (LLC One Summerton Way, Philomath, Oreg., USA). MO HS3ST2-ATG: 5′-[…]-3′.
The morpholinos were diluted to three different concentrations in Danieau buffer (58 mM NaCl, 0.7 mM KCl, 0.4 mM MgSO4, 0.6 mM Ca(NO3), 5 mM HEPES pH 7.6) and co-injected with 0.3 mg/mL dextran rhodamine (Molecular Probes, Eugene, Oreg., USA). Transgenic zebrafish embryos at one-cell or two-cell stage were microinjected with approximately 2 nL of 0.5 mM, or 1 mM morpholino solution using a pressure microinjector and a Zeiss stereomicroscope (Zeiss). […]
The embryos resulting from crossing between AB line and transgenic zebrafish carrying the P301L mutated Tau gene were screened for the DsRed fluorescent protein at 24 hpf and at 48 hpf the vitellus was removed. […] Protein concentration was measured according to the Bradford method.
Levels of P-Tau181, characteristic of taupathy associated pathologies, were measured using a combination of monoclonal antibody HT7 (which recognizes amino acids 159-163 in normal Tau and P-Tau) and biotinylated monoclonal antibody AT270 (which recognizes P-Tau containing the phosphorylated threonine 181 residue). […]

The test system of data set [2] is transgenic hTAU-P301L zebrafish embryos. The data set can be described thus: Morpholino injection in transgenic hTAU-P301L zebrafish embryos: survival, anomalies. The data set is classed as in vivo. The settings on record: morpholino 0.5 mM.
From the text: Transgenic hTAU-P301L embryos with morpholino-mediated knock-down of the 3-OST-2 coding gene with SEQ ID NO: 5 and the non-injected embryos were screened on the intensity of DsRed fluorescent protein at 24 hpf. With morpholino-mediated knock-down of the 3-OST-2 coding gene in the transgenic hTAU-P301L zebrafish model the level of hyperphosphorylation in Tau protein was investigated. First of all, the obtained zebrafish embryos from the crossing between WT line and transgenic zebrafish carrying the P301L mutation in Tau protein were injected with different morpholino concentrations, respectively 0.3 mM, 0.5 mM and 1 mM. The numbers of living embryos were assessed at 24 hours after injection and survival rates were determined. […] Thus, this concentration was chosen for further analyses (FIG. 12).
as §1
The morpholinos were diluted to three different concentrations in Danieau buffer (58 mM NaCl, 0.7 mM KCl, 0.4 mM MgSO4, 0.6 mM Ca(NO3), 5 mM HEPES pH 7.6) and co-injected with 0.3 mg/mL dextran rhodamine (Molecular Probes, Eugene, Oreg., USA). […]

Data set [3] deals with abnormally phosphorylated Tau in wild type differentiated SH-SY5Y cells. The data set is described as follows: Suppression of GAG sulfation by chlorate in differentiated SH-SY5Y cells, pTau western blot. Particulars: FIG. 8A, chlorate 50 mM. The data set is classed as cell-based, human. As to the method: Two cell types were used, (i) a wild type SH-SY5Y cells (mutation-independent model) in where abnormal phosphorylation is induced by oxidative stress and (ii) cells stably transfected with complete human tau protein having the mutation hTAU-P301L (mutation dependent model), characteristic of FTDP-17. As a consequence of the Tau mutation cells present high levels of abnormal phosphorylated Tau.
For the mutation dependent model cells were cultured as previously described (Schaeffer V et al., J Neurobiol 2006, July; 66(8):868-881). For the mutation independent model, human SH-SY5Y neuroblastoma cells were propagated in Dulbeco's modiced Eagle's medium (Gibco) with 5% fetal bovine serum and penicillin/streptomycin (5% CO2 and 95% air). For both models cells were plated at a density of 10^6 cells/cm^2 on 25 cm^2 dish and incubated under standard conditions for 24 h. […]
After harvesting, cells were and incubated in an ice bath for 5 min in a lysis buffer (50 mM Trus-HCl, 150 mM NaCl, 1% Triton X-100, 1 mM EDTA, 10 mM NaF, pH 8.0) containing 1 mM Na3VO4, and 0.1% protease inhibitor cocktail (Sigam). Lysates were centrifuged and proteins in the supernatants were quantified using the BCA protein assay kit (Pierce). […] Abnormally phosphorylated tau was detected by using anti-tau-pSer199 and anti-tau-pSer396 (Millipore) as described above. […] Results were expressed as a ratio of target protein to actine. […]
Background: In western blotting, separated proteins are transferred to a membrane and probed.

In data set [4] the target is T1, human Tau protein (Homo sapiens, UniProt P10636).
T1 construct: purchased R&D systems
The data set is described as follows: Heparin/glycosaminoglycans ELISA competition assay towards human Tau protein (immobilized heparin). It is filed as binding. The settings on record: FIG. 20. As to the method:
FIGS. 6A and 6B presents the higher capacity of GAGs extracted from hippocampus of AD to bind to human tau protein compared to GAGs from age-matched normal control brains. An ELISA test was used to compare the capacity of the different GAGs to bind to tau protein. The ELISA competing assay used immobilized heparin to bind au in the absence of competing GAGs. For the assay, GAGs (used from 0.1 to 1000 ng/mL) were added to the ELISA together with the tau protein (used at 100 ng/mL). After 1 h incubation at 4° C. plates were washed and remaining tau signal was recorded in the plate. X-axis: % Tau protein binding to total sulfated GAGs. EC50 stands for the GAG concentration necessary to inhibit 50% of the tau protein binding to immobilized heparin. Y-axis: Control (white histogram), AD (black histogram).
AD and control hippocampus extracted GAGs binding to human Tau protein (R&D systems) was evaluated by an ELISA based competition binding essay (Najjam et al., 1997). ELISA type 96 wells plates were coated with a 2 μg/mL BSA-heparin conjugate solution prepared as previously described (Najjam et al., 1997). After washing with PBS/0.05% Tween-20 (washing solution), wells were saturated with 3% BSA in PBS. […] Peroxidase activity was measured by the tetramethylbenzidine (TMB) detection kit (Pierce). […]
A general note: In an ELISA, binding on a coated surface is turned into a signal by an enzyme label.

The target in data set [5] is T2, recombinant human tau protein (441-amino acid isoform), GSK-3 (Homo sapiens, UniProt P10636).
T2 construct: purchased Millipore
The data set is described as follows: Phosphorylation of recombinant human Tau by GSK-3 in the presence of GAGs, heparin or oligosaccharides. It is filed as biochemical. The settings on record: 3-O-sulfated groups in heparin. As to the method:
Phosphorylation by glycogen synthase kinase 3 (GSK-3). Recombinant hTau41 (Millipore) was incubated for 0 to 24 h with […] of recombinant GSK3 (Millipore) in the presence or absence of 50 mg/ml of heparin, Arixtra®, or the heparin hexasaccharide non 3-O-sulfated. Phosphorylation assays (0.050 ml) were carried out at 30° C. and comprised 25 mM Tris-HCl, pH 7.4, 0.1 mM EGTA, 0.1 mM sodium orthovanadate, 2.5 mM PKI (a specific inhibitor of cyclic AMP-dependent protein kinase), protease inhibitors (0.5 mM phenylmethylsulfonyl fluoride, 5 mg/ml aprotinin, 5 mg/ml leupeptin,
and 0.5 mg/ml pepstatin), tau protein ([…]), 10 mM magnesium acetate, 2 mM [g-^32P]ATP (approximately 100 cpm/nmol) 5 units/ml recombinant reconstituted GSK3. Reactions were initiated with ATP and aliquots were removed at various times ranging from 10 min to 24 h and used for SDS-polyacrylamide gel electrophoresis and immunoblotting. Immunoblots were performed as described (Masato Hasegawa et al., J Bio Chem. (1997) 272 (52), pp. 33118-33124). Alternatively, incorporation of ^32P radioactivity was measured after adsorption to Whatman P-81 paper, as described. Heparin and extracted GAGs were included in the assays at 50 mg/ml.

T1 sequence (P10636 1-441 isoform P10636-8): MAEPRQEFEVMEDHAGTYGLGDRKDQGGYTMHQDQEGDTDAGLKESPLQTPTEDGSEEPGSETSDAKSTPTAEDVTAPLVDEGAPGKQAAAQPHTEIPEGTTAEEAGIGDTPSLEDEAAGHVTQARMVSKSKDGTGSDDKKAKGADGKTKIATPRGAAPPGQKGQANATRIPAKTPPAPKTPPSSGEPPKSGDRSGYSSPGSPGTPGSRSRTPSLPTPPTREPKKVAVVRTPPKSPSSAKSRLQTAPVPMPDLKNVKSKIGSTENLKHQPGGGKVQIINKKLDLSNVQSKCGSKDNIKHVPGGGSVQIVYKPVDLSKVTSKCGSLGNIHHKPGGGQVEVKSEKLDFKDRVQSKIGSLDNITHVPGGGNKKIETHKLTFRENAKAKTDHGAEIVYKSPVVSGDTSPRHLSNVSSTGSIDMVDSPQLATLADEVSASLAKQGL
T2 sequence (P10636 1-441 isoform P10636-8): as above

Consider “5′-GGCTTGACAGGAACCTATATGCCAT-3′ (all phosphorodiamidate morpholino (PMO)) [MO HS3ST2-ATG]”, for which the “accumulation of abnormally phosphorylated Tau protein in spinal cord” value in data set [1] (FIG. 13, anti-PHF-tau antibody clone AT8) is recorded as “diminishes the accumulation of abnormally phosphorylated Tau protein in spinal cord”. Besides, the “accumulation of abnormal Tau hyperphosphorylation in vivo” value in data set [1] (decreasing expression of 3-OST-2 by morpholino) is given as “accumulation of abnormal Tau hyperphosphorylation was markedly decreased”. Besides, the “major anomalies or deformities” value in data set [2] is “did not give major anomalies or deformities”. The molecule also had a survival rate in data set [2] (24 hours post-injection) of 67%.
With `[O-][Cl+2]([O-])O` [chlorate, sodium chlorate], the “levels of abnormally phosphorylated Tau epitopes S199, T231, S262, S396 (pTau/β actine)” value in data set [3] is recorded as “Decreased levels of the abnormally phosphorylated Tau epitopes”.
With fucoidan, in data set [4], the “competition with heparin for binding to human Tau protein (percentage of binding of test compound to hTau)” value is given as “able to compete with heparin for the binding to human Tau protein”.
With heparin, in data set [5], the “induction of abnormal Tau phosphorylation in vitro” value was “able to induce abnormal Tau phosphorylation in vitro”.
